Where “and” joins values, the source holds several entries; their conditions need not be identical. Equal values may be shown once. Read-outs that look alike come from different tables or passages of the source.
How the values were obtained:
[1] = Dog single-dose IV and oral pharmacokinetics; format: in vivo; settings: for AUC(0-t): read-out: AUC0-t(last); for half-life: read-out: t1/2,z (converted)
Method: Pharmacokinetic Report for the study No. 0320-2007
Fexinidazole was given as IV and oral administrations to male Beagle dogs according to the […]
Dog ID Route Dose Formulation
IV dose was administered via the radial vein, the oral dose was administered by gastric […]
gavage. A washout period of […] was allowed between the IV (Day 1) and oral (Day 12) […]
4.2. Sample Collection and Handling
Blood was withdrawn from jugular vein and collected in heparinized plastic tubes kept on an […]
ice/water bath, then centrifuged at 1200g for 10 minutes at 4°C. Three aliquots of the […]
separated plasma (about 0.2 mL) was stored at -80°C until analysis for Fexinidazole and its […]
sulphone and sulphoxide metabolites. Blood was taken at pre-dose and 0.083 (5 minutes), […]
4.3. Bioanalytical Method
Plasma concentrations of Fexinidazole and its sulphone and sulphoxide metabolites were […]
determined by LC-MS-MS method following plasma protein precipitation. The lower limit […]
of quantification of the bioanalytical method was 5 ng/mL for all analytes. Bioanalytical data […]
Details of the bioanalytical method used are reported in Appendix 2 and analytical […]
performances of calibration standards are reported in Appendix 3.
4.4. Pharmacokinetic Calculations
Pharmacokinetic evaluations of Fexinidazole and sulphone and sulphoxide metabolites were […]
For the calculations, the pre-dose concentrations of Fexinidazole were set equal to C0.083 […]
after IV administration, whilst the pre-dose concentrations of Fexinidazole after oral […]
administration and the pre-dose concentrations of the metabolites after both doses were set […]
Nerviano Medical Sciences
After IV and oral dosing, Cmax (C0.083 for Fexinidazole after IV dosing) and tmax of each […]
concentration. After both doses, for each compound, the area under plasma concentration vs. […]
last detectable concentration. The half-life of the terminal phase, t1/2,z, was determined by […]
linear regression analysis of the natural-log concentration vs. time curve, where t1/2,z = […]
ln(2)/slope of the regression line. […]
infinite time, AUC0-∞, was determined as
AUC0- ∞ = AUC0 − t(last) + Ct(last)⋅ […]
The fraction of AUC0-∞ accounted for by the extrapolated area under the curve was […]
%EXTt (last)− 0∞=100⋅AUCt(last)−∞
After IV dosing, plasma clearance and volume of distribution at steady state of Fexinidazole […]
were calculated as follows:
Vss = CL⋅MRT, where MRT is the mean residence time.
Absolute bioavailability of Fexinidazole was calculated from the ratio of individual oral to […]
IV dose-normalized AUC0-t(last) and AUC0-∞ values.
After both doses, Cmax and AUC values of each compound were also normalized to a 1 […]
pharmacokinetic parameters sorted by compound and route of dosing.
Plasma concentrations and pharmacokinetic parameters of each compound were reported to […]
three significant figures.
5.1.1. Clinical and Physical Examinations
Individual clinical signs are reported in Appendix 4. […]
treatments with Fexinidazole. No meaningful clinical signs were recorded during wash out

[2] = Mouse brain concentrations; format: in vivo; settings: for concentration at 60 min / concentration at 30 min / Kp at 5 min / Kp at 30 min / Kp at 60 min / concentration at 5 min / concentration at 15 min / Kp at 15 min: female, NMRI, mouse; for Kp at 5 min / Kp at 30 min / Kp at 60 min / Kp at 15 min: read-out: Mean plasma:brain ratio (plasma = 1.00)
Method: Following sacrifice, the cranium of mice was opened and the brain removed. Excess blood was washed from the brain with distilled water and any excess fluid blotted on absorbent paper. The brain was then snap frozen using liquid nitrogen and placed into a suitably labelled container and stored at approximately −70°C, pending analysis. Brains were homogenized and extracted samples were prepared appropriately for analysis via liquid chromatography-mass spectrometry (LC-MS).
BioDynamics Study No: DND/01
Two groups of female mice were dosed as follows:
Number Treatment Dose (mg/kg) Route
All doses are expressed as free base
Intravenous doses were administered into a lateral tail vein using an appropriately sized syringe and 25G needle and the oral formulation by oral gavage using a polypropylene gavage tube. All doses were given as a single bolus dose at a constant dose volume of 10.0 mL/kg.
1.6 Blood sample collection
At each sampling time point, three animals in each treatment group were deeply anaesthetised using isoflurane and blood samples (approximately 1 mL) taken into individual heparinised tubes by cardiac puncture, following which the animals were killed by cervical fracture. Samples were collected at the following times post-dose:
Following collection, the blood samples were centrifuged (approximately 10000 g, 2 min at 4 °C) and the plasma retained as one aliquot at approximately -70°C prior to analysis of test material concentrations at BioDynamics by LC-MS/MS.
1.7 Collection of terminal brain samples
Following collection of the terminal blood sample the cranium of each mouse was carefully opened and the brain removed. Excess blood was washed from the brain with distilled water and any excess fluid blotted on absorbent paper. The brain was then snap frozen using liquid nitrogen and placed into a suitably labelled container and stored frozen at approximately -70°C pending analysis.
All of the plasma samples together with the brains from the 15 minute time point were analysed for concentrations of the test material and its sulfone and sulfoxide metabolites. In addition the brains from the 5 and 30 minute time points for the intravenously treated and the 30 and 60 minute time points for the orally treated animals were analysed for concentrations of Fexinidazole and its sulfone and sulfoxide metabolites using an LC-MS/MS method developed at BioDynamics.
All samples were treated as temperature sensitive. Blood samples were collected onto wet ice, followed by centrifugation at 4 °C. Plasma and brain samples were snap frozen on dry ice (plasma) or liquid nitrogen (brains) prior to long term storage at less than -70 °C pending analysis.

[3] = dog, plasma, fexinidazole 1 mg/kg IV, male Beagle dogs, read-out: Cmax (C0.083 for parent)
[4] = male, Beagle, dog, plasma, fexinidazole 1 mg/kg IV
[5] = male, Beagle, dog, plasma, fexinidazole 10 mg/kg oral
[6] = male, Beagle, dog, plasma, fexinidazole 10 mg/kg oral, read-out: Cmax
[7] = brain homogenate, oral, 25 mg/kg, fexinidazole 25 mg/kg po, 60 min, read-out: Brain homogenate concentration
[8] = brain, oral, 25 mg/kg, fexinidazole 25 mg/kg po, 30 min, read-out: Brain concentration
[9] = brain, oral, 25 mg/kg, fexinidazole 25 mg/kg po, 30 min, read-out: Brain homogenate concentration
[10] = brain, oral, 25 mg/kg, fexinidazole 25 mg/kg po, 60 min, read-out: Brain concentration
[11] = fexinidazole 25 mg/kg po, 30 min
[12] = fexinidazole 25 mg/kg po, 60 min
[13] = brain homogenate, intravenous, 1 mg/kg, fexinidazole 1 mg/kg iv, 5 min, read-out: Brain homogenate concentration
[14] = brain homogenate, intravenous, 1 mg/kg, fexinidazole 1 mg/kg iv, 30 min, read-out: Brain homogenate concentration
[15] = brain, intravenous, 1 mg/kg, fexinidazole 1 mg/kg iv, 5 min, read-out: Brain concentration
[16] = brain, intravenous, 1 mg/kg, fexinidazole 1 mg/kg iv, 30 min, read-out: Brain concentration
[17] = dog, oral 10 mg/kg vs IV 1 mg/kg

Row | Compound | Cmax [1, 3] | Tmax [1, 4] | AUC(0-t) [1, 4] | Tmax [1, 5] | AUC(0-t) [1, 5] | Cmax [1, 6] | concentration at 60 min [2, 7] | concentration at 30 min [2, 8] | concentration at 30 min [2, 9] | concentration at 60 min [2, 10] | Kp at 5 min ([2]; brain, iv 1 mg/kg, 5 min) | Kp at 30 min ([2]; brain, iv 1 mg/kg, 30 min) | Kp at 30 min ([2]; brain, po 25 mg/kg, 30 min) | Kp at 60 min ([2]; brain, po 25 mg/kg, 60 min) | Brain concentration [2, 11] | Brain concentration [2, 12] | AUC(0-inf) [1, 4] | half-life [1, 4] | AUC(0-inf) [1, 5] | half-life [1, 5] | further results
1 | Cn1c([N+](=O)[O-])cnc1COc1ccc(S(C)(=O)=O)cc1 [Fexinidazole sulfone] | 681 ± 162 ng/mL | 4.67 h | 5270 ± 1230 ng·h/mL | 6.67 h | 44700 ± 3810 ng·h/mL | 3260 ± 762 ng/mL | 394 ng/mL | 468 ng/g | 156 ng/mL | 1180 ng/g | 0 | 0 | 0.05 | 0.06 | 469 ± 222 ng/g | 1183 ± 322 ng/g | – | – | – | – | Brain homogenate concentration ([2]; fexinidazole 1 mg/kg iv, 5 min): BLQ; Brain homogenate concentration ([2]; fexinidazole 1 mg/kg iv, 30 min): BLQ
2 | Cn1c([N+](=O)[O-])cnc1COc1ccc([S+](C)[O-])cc1 (centres unmarked) [Fexinidazole sulfoxide] | 763 ± 45.3 ng/mL | 0.194 h | 1480 ± 197 ng·h/mL | 1.17 h | 8560 ± 767 ng·h/mL | 1900 ± 186 ng/mL | 1620 ng/mL | 3310 ng/g | 1100 ng/mL | 4870 ng/g | 0.045 | 0.064 | 0.078 | 0.12 | 3315 ± 1611 ng/g | 4873 ± 2335 ng/g | 1520 ± 208 ng·h/mL | 1.16 h | 8780 ± 895 ng·h/mL | 5.72 h | concentration at 5 min [2, 13]: 39.9 ng/mL; concentration at 30 min [2, 14]: 57.6 ng/mL; concentration at 5 min [2, 15]: 120 ng/g; concentration at 30 min [2, 16]: 173 ng/g
3 | CSc1ccc(OCc2ncc([N+](=O)[O-])n2C)cc1 [Fexinidazole, 1-methyl-2-((p-(methylthio)phenoxy)methyl)-5-nitroimidazole] | 320 ± 136 ng/mL | – | 66.9 ± 31.8 ng·h/mL | 0.667 h | 57.2 ± 13.4 ng·h/mL | 24.2 ± 5.86 ng/mL | 254 ng/mL | 800 ng/g | 266 ng/mL | 763 ng/g | 0.56 | 1.03 | 1.16 | 1.22 | 800 ± 92.6 ng/g | 763 ± 90.7 ng/g | 70.6 ± 33.8 ng·h/mL | 0.406 h | 85.3 ± 1.27 ng·h/mL | 1.93 h | clinical signs ([1]; 1 mg/kg IV and 10 mg/kg oral): No significant treatment related clinical signs; F% AUC0-t(last) [1, 17]: 10% and 9.60 ±4.32%; F% AUC0-∞ [1, 17]: 14.1%; clearance ([1]; male, Beagle, dog, plasma, 1 mg/kg IV): 273 mL/min/kg; Vd ([1]; male, Beagle, dog, plasma, 1 mg/kg IV, read-out: Vss): 3.26 L/kg; concentration at 5 min [2, 13]: 92.5 ng/mL; concentration at 15 min ([2]; brain homogenate, intravenous, 1 mg/kg, fexinidazole 1 mg/kg iv, 15 min, read-out: Brain homogenate concentration): 21.3 ng/mL; concentration at 30 min [2, 14]: 12.1 ng/mL; concentration at 15 min ([2]; brain homogenate, oral, 25 mg/kg, fexinidazole 25 mg/kg po, 15 min, read-out: Brain homogenate concentration): 379 ng/mL; concentration at 5 min [2, 15]: 277 ng/g; concentration at 15 min ([2]; brain, intravenous, 1 mg/kg, fexinidazole 1 mg/kg iv, 15 min, read-out: Brain concentration): 63.8 ng/g; concentration at 30 min [2, 16]: 36.2 ng/g; concentration at 15 min ([2]; brain, oral, 25 mg/kg, fexinidazole 25 mg/kg po, 15 min, read-out: Brain concentration): 1140 ng/g; Kp at 15 min ([2]; brain, iv 1 mg/kg, 15 min): 0.76; Kp at 15 min ([2]; brain, po 25 mg/kg, 15 min): 0.76; Brain concentration ([2]; fexinidazole 25 mg/kg po, 15 min): 1136 ± 54.1 ng/g
